Source: patent US10045978B2 (AB SCIENCE, priority 2010, dated 2018)

Assays:
[1] = system: patients with indolent mastocytosis with handicap bearing the D816V c-Kit mutation; assay: Example 2 phase 2a study, safety; assay type: in vivo, human
[2] = system: patients with indolent mastocytosis with handicap bearing the D816V c-Kit mutation; assay: Example 3 a posteriori analysis of new handicap and response criteria; assay type: in vivo, human
Excerpt: Of relevance to the invention described, the concepts of a restricted mast cell mediator release associated handicap population and a more stringently defined response criterion have been explored via a posteriori data analysis of a common study population. […] (Note, any discrepancies between directly equivalent data presented in example 2 and example 3 are due to the former being taken from preliminary data analysis and the latter being extended/validated data from that study).
A posteriori data analysis was carried out on a new, restricted mast cell mediator release associated handicap population (wherein patients were classified as having a handicap if after appropriate symptomatic treatments they fulfilled at least one of the following criteria: number of flushes/week ≥7; pruritus score ≥6; number of stools ≥4/day (i.e. diarrhea); micturition frequency ≥8/day (i.e. pollakiuria); Hamilton rating for depression ≥14; Fatigue Impact Scale (FIS) score ≥75; or EORTC quality-of-life questionnaire (QLQ-C30) score ≥60). […]

[3] = system: Ba/F3 cells expressing human or mouse wild-type c-Kit; settings: stem cell factor-induced proliferation and c-Kit tyrosine phosphorylation; cited from earlier work
[4] = system: patients with indolent forms of mastocytosis with handicap; assay: Example 1 phase 2a study, safety assessment

Compound: Cc1ccc(NC(=O)c2ccc(CN3CCN(C)CC3)cc2)cc1Nc1nc(-c2cccnc2)cs1 [masitinib, 4-(4-methylpiperazin-1-ylmethyl)-N-[4-methyl-3-(4-pyridin-3ylthiazol-2-ylamino)phenyl]benzamide]
- patients with at least one adverse event suspected to be related to masitinib ([1]; 20 patients): 95%
- patients who discontinued treatment because of a suspected adverse event ([1]; five patients): 24%
- patients with suspected adverse event that led to dose reduction ([1]; in vivo): Two
- patients with at least one serious adverse event suspected to be related to masitinib ([1]; two patients): 9%
- overall response rate ([2]; new handicap thresholds and response criterion, n=11): 52%
- overall response rate ([2]; original handicap thresholds and response criterion, n=14): 62%
- IC50 [3]: 150 ± 80 nM
- Early study discontinuation: Adverse event ([4]; All (N = 25)): 12 N, %
- incidence of skin rash ([4]; after W12): no incidence
- At least one suspected AE ([4]; extension phase, All (N = 17)): 10 (58.8%) subjects (%)
- suspected AE: Abdominal pain ([4]; extension phase, All (N = 17)): 1 (5.9%) subjects (%)
- suspected AE: Aphthous stomatitis ([4]; extension phase, All (N = 17)): 1 (5.9%) subjects (%)
- suspected AE: Arthralgia ([4]; extension phase, All (N = 17)): 1 (5.9%) subjects (%)
- suspected AE: Blepharitis ([4]; extension phase, All (N = 17)): 1 (5.9%) subjects (%)
- suspected AE: Cytolytic hepatitis ([4]; extension phase, All (N = 17)): 1 (5.9%) subjects (%)
- suspected AE: Dermatitis psoriasiform ([4]; extension phase, All (N = 17)): 1 (5.9%) subjects (%)
- suspected AE: Eczema ([4]; extension phase, All (N = 17)): 1 (5.9%) subjects (%)
- suspected AE: Gamma-glutamyltransferase increased ([4]; extension phase, All (N = 17)): 1 (5.9%) subjects (%)
- suspected AE: Gingivitis ([4]; extension phase, All (N = 17)): 1 (5.9%) subjects (%)
- suspected AE: Muscle spasms ([4]; extension phase, All (N = 17)): 1 (5.9%) subjects (%)
- suspected AE: Vomiting ([4]; extension phase, All (N = 17)): 1 (5.9%) subjects (%)
- At least one suspected AE ([4]; extension phase, Mild): 6 (35.3%) subjects (%)
- suspected AE: Arthralgia ([4]; extension phase, Mild): 1 (5.9%) subjects (%)
- suspected AE: Blepharitis ([4]; extension phase, Mild): 1 (5.9%) subjects (%)
- suspected AE: Dermatitis psoriasiform ([4]; extension phase, Mild): 1 (5.9%) subjects (%)
- suspected AE: Edema—all categories ([4]; extension phase, Mild): 1 (5.9%) subjects (%)
- suspected AE: Gamma-glutamyltransferase increased ([4]; extension phase, Mild): 1 (5.9%) subjects (%)
- suspected AE: Gingivitis ([4]; extension phase, Mild): 1 (5.9%) subjects (%)
- suspected AE: Nausea ([4]; extension phase, Mild): 2 (11.8%) subjects (%)
- suspected AE: Nausea/Vomiting ([4]; extension phase, Mild): 2 (11.8%) subjects (%)
- At least one suspected AE ([4]; extension phase, Moderate): 5 (29.4%) subjects (%)
- suspected AE: Abdominal pain ([4]; extension phase, Moderate): 1 (5.9%) subjects (%)
- suspected AE: Cytolytic hepatitis ([4]; extension phase, Moderate): 1 (5.9%) subjects (%)
- suspected AE: Eczema ([4]; extension phase, Moderate): 1 (5.9%) subjects (%)
- suspected AE: Muscle spasms ([4]; extension phase, Moderate): 1 (5.9%) subjects (%)
- suspected AE: Nausea/Vomiting ([4]; extension phase, Moderate): 1 (5.9%) subjects (%)
- suspected AE: Vomiting ([4]; extension phase, Moderate): 1 (5.9%) subjects (%)
- At least one suspected AE ([4]; extension phase, Severe): 1 (5.9%) subjects (%)
- suspected AE: Aphthous stomatitis ([4]; extension phase, Severe): 1 (5.9%) subjects (%)
- At least one suspected AE ([4]; initial phase, Mild): 11 (44.0%) subjects (%)
- suspected AE: Abdominal pain ([4]; initial phase, Mild): 2 (8.0%) subjects (%)
- suspected AE: Diarrhea ([4]; initial phase, Mild): 1 (4.0%) subjects (%)
- suspected AE: Edema - all categories ([4]; initial phase, Mild): 3 (12.0%) subjects (%)
- suspected AE: Muscle spasms ([4]; initial phase, Mild): 1 (4.0%) subjects (%)
- suspected AE: Nausea ([4]; initial phase, Mild): 5 (20.0%) subjects (%)
- suspected AE: Nausea/Vomiting ([4]; initial phase, Mild): 6 (24.0%) subjects (%)
- suspected AE: Vomiting ([4]; initial phase, Mild): 1 (4.0%) subjects (%)
- At least one suspected AE ([4]; initial phase, Moderate): 19 (76.0%) subjects (%)
- suspected AE: Abdominal pain ([4]; initial phase, Moderate): 3 (12.0%) subjects (%)
- suspected AE: Asthaenia ([4]; initial phase, Moderate): 4 (16.0%) subjects (%)
- suspected AE: Diarrhea ([4]; initial phase, Moderate): 2 (8.0%) subjects (%)
- suspected AE: Dyspnoea ([4]; initial phase, Moderate): 3 (12.0%) subjects (%)
- suspected AE: Edema - all categories ([4]; initial phase, Moderate): 8 (32.0%) subjects (%)
- suspected AE: Eructation ([4]; initial phase, Moderate): 2 (8.0%) subjects (%)
- suspected AE: Headache ([4]; initial phase, Moderate): 5 (20.0%) subjects (%)
- suspected AE: Muscle spasms ([4]; initial phase, Moderate): 7 (28.0%) subjects (%)
- suspected AE: Nausea ([4]; initial phase, Moderate): 7 (28.0%) subjects (%)
- suspected AE: Nausea/Vomiting ([4]; initial phase, Moderate): 8 (32.0%) subjects (%)
- suspected AE: Rash - all categories ([4]; initial phase, Moderate): 6 (24.0%) subjects (%)
- suspected AE: Vomiting ([4]; initial phase, Moderate): 4 (16.0%) subjects (%)
- At least one suspected AE ([4]; initial phase, Severe): 9 (36.0%) subjects (%)
- suspected AE: Asthaenia ([4]; initial phase, Severe): 3 (12.0%) subjects (%)
- suspected AE: Diarrhea ([4]; initial phase, Severe): 1 (4.0%) subjects (%)
- suspected AE: Edema - all categories ([4]; initial phase, Severe): 2 (8.0%) subjects (%)
- suspected AE: Eructation ([4]; initial phase, Severe): 1 (4.0%) subjects (%)
- suspected AE: Muscle spasms ([4]; initial phase, Severe): 1 (4.0%) subjects (%)
- suspected AE: Nausea ([4]; initial phase, Severe): 1 (4.0%) subjects (%)
- suspected AE: Nausea/Vomiting ([4]; initial phase, Severe): 1 (4.0%) subjects (%)
- suspected AE: Rash - all categories ([4]; initial phase, Severe): 2 (8.0%) subjects (%)
- treatment-related SAEs ([4]; one patient, two episodes of agranulocytosis at 3 mg/kg/day): Two
- patients who withdrew due to occurrence of AEs ([4]; prior to W12, 2/25 patients): 8%
